# Laboratory results as given in patent US20260152777A1, “METHOD FOR PRODUCING EPIGALLOCATECHIN GALLATE MONOGLUCOSIDE” (GIVAUDAN SA, priority 2022, published 2026).
# Test system: human skin explants
# Experiment: Whitening activity (ex vivo), Fontana-Masson staining for melanin quantification
# Format: cell-based
# Details: at 2%, topical, 7 days
# Procedure: Fresh human skin explants were obtained from skin phototype III and VI donors, aged of 46±25 years. […] Kojic acid (Sigma-Aldrich) at 2% was topically applied and incubated under the same conditions, serving as positive control. The untreated condition was treated with the vehicle (distilled water). The medium was renewed every other day. After the end of culture, the skin explants were sampled and put in formalin before being dehydrated and embedded in paraffin for Fontana-Masson staining.
# Skin explants fixed in formalin were dehydrated and embedded in paraffin. Sections of 4 μm thickness were dewaxed and then stained by Fontana-Masson silver method for melanin.
# Images were collected using an Axio Observer Inverted fluorescence microscope (Zeiss) in bright field mode.
# Melanin was quantified using two open source optical imaging software programs. Photomicrographs (jpeg format) of Fontana-Masson tissue sections were opened in GIMP-GNU Image Manipulation Program. The brown-black color signals corresponding to melanin grains on stained sections were selected, copied and pasted into a new image and saved as a jpeg file; this jpeg file consists solely of black/brown (melanin grains) on a white background. This image was subsequently opened using the ImageJ program. The image was then inverted and the mean intensity was obtained.
smiles,measurement,value
"O=C1O[C@H]([C@@H](O)CO)C(O)=C1O [Ascorbic acid, ascorbic acid]",reduction of melanin content compared to untreated,28%
